AC50 data for 1 molecule are collected here from ChEMBL document CHEMBL5291721, “A preclinical secondary pharmacology resource illuminates target-adverse drug reaction associations of marketed drugs” (Nat Commun, 2023).

The target in test [1] is T1, Nuclear receptor subfamily 1 group I member 3 (Homo sapiens, UniProt Q14994).
T1 sequence (Q14994 whole entry): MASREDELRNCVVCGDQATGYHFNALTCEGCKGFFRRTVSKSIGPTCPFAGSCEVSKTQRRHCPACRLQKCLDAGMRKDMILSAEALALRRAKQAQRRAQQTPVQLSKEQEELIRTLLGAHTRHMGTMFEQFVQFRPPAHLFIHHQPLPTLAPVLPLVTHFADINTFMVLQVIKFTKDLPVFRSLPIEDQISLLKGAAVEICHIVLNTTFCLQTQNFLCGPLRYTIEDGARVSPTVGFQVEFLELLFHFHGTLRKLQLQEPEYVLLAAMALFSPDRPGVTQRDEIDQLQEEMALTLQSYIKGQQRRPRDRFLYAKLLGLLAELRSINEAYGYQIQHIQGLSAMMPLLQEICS
Format: functional.

Test [2] addresses T2, Oxysterols receptor LXR-alpha (Homo sapiens, UniProt Q13133).
T2 sequence (Q13133 whole entry): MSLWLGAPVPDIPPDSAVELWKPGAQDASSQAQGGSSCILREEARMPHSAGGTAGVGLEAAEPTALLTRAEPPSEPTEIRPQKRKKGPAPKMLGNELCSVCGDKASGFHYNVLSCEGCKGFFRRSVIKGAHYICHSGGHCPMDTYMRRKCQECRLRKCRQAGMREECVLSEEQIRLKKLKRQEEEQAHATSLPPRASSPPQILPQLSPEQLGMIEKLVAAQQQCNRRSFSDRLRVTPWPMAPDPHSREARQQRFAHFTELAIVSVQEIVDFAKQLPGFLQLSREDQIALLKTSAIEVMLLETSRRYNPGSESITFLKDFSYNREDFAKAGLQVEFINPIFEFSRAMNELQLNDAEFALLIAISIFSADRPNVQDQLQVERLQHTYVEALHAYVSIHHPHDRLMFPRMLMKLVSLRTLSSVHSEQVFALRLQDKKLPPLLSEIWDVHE
Format: functional.

The target in test [3] is T3, Retinoic acid receptor gamma (Homo sapiens, UniProt P13631).
T3 sequence (P13631 whole entry): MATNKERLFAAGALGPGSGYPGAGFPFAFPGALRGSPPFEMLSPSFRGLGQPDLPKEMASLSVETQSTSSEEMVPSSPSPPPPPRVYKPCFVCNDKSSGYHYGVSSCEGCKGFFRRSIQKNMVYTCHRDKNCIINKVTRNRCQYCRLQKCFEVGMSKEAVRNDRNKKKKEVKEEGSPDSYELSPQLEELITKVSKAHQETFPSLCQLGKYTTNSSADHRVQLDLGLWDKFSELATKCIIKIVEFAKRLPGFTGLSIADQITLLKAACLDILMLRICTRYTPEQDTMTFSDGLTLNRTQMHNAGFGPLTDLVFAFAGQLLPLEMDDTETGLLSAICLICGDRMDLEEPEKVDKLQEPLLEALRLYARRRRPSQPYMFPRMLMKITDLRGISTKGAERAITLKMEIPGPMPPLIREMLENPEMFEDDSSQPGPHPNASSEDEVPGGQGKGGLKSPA
The format is functional, cell-based.

Test [4] addresses T4, Bile acid receptor (Homo sapiens, UniProt Q96RI1).
T4 sequence (Q96RI1 whole entry): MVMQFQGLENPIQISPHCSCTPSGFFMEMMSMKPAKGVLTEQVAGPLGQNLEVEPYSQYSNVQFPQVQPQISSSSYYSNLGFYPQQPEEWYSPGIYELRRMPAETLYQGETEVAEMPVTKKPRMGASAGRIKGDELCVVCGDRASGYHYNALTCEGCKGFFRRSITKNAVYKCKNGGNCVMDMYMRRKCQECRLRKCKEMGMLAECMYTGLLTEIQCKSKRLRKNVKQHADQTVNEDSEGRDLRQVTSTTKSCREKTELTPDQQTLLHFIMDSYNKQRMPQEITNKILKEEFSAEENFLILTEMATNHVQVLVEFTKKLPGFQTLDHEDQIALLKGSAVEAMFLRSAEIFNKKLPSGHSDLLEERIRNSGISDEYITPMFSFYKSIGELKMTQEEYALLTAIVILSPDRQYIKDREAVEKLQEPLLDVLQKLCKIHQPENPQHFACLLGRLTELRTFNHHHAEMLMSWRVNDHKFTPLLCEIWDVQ
The format is functional.

Test [5] concerns the target T5, Retinoic acid receptor alpha (Homo sapiens, UniProt P10276).
T5 sequence (P10276 whole entry): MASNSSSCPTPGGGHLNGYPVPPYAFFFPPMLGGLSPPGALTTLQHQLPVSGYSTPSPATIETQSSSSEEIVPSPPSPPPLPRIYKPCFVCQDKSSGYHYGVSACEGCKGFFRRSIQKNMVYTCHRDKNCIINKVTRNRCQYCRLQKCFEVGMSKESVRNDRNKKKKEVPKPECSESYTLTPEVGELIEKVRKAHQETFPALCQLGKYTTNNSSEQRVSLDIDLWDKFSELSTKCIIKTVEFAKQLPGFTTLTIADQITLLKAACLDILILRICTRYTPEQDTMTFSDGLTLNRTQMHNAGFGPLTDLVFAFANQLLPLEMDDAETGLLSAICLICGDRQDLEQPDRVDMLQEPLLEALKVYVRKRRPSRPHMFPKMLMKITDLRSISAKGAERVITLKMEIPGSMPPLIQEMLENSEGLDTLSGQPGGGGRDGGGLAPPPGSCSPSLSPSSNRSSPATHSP
Format: functional, cell-based.

Test [6] deals with T6, Retinoic acid receptor beta (Homo sapiens, UniProt P10826).
T6 sequence (P10826 whole entry): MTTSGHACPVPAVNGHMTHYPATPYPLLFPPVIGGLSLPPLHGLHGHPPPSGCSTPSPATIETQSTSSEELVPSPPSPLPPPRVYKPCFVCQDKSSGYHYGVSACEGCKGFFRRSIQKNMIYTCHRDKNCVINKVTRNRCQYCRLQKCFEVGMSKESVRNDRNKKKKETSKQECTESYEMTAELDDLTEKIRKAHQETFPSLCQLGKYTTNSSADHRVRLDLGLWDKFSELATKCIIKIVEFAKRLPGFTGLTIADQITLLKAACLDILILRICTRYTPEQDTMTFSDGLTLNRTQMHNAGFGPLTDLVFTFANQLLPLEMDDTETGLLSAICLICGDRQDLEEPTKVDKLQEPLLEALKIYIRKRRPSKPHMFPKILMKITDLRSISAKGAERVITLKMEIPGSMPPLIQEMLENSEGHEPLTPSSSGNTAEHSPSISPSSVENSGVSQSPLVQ
Format: functional, cell-based.
Note: assay procedure not described here.

As to `CC(=O)N1CCN(c2ccc(OCC3COC(Cn4ccnc4)(c4ccc(Cl)cc4Cl)O3)cc2)CC1` (stereo unspecified) [KETOCONAZOLE], the AC50 in test [1] is 5 µM; in test [2], above 10 µM; in test [3], above 30 µM; in test [4], 15 µM; in test [5] it was above 30 µM; in test [6], 3.3 µM.

The term AC50 denotes the midpoint of the concentration-response curve, whichever way the signal moves. A high value points to activity only at high concentration.
